Data as given in PubChem BioAssay AID743068 (The Scripps Research Institute Molecular Screening Center, 2013).

System: T. brucei
Assay: T. brucei bloodstream-form proliferation inhibition – absorbance, round 1, T. brucei MetRS inhibitor project, late-stage follow-up (AID 743068)
Settings: T. brucei Lister 427 bloodstream forms, AlamarBlue fluorescence, 48 h

Row | SMILES | IC50 [µM]
1 | CCN(CC)C(=O)C(=O)c1cn(CC(=O)N2CCCc3ccccc32)c2ccccc12 | > 10
2 | COc1ccc(CCN(C(=O)c2cccc(F)c2)C2CC(=O)N(c3ccc(Br)cc3)C2=O)cc1 (stereo not given) | > 10
3 | O=C(CSC1CC(=O)N(c2cccc(Cl)c2)C1=O)Nc1ccc(Br)cc1 (stereo not given) | > 10
4 | Cc1cccc2[nH]c(CCN(C)C(=O)c3cccc(C4CCNC4)c3)nc12 (stereo not given) | > 10
5 | Cc1cccc(C(=O)NCCc2nc3ccccc3n2CCOc2ccccc2)c1 | > 10
6 | COc1ccc(CCN(C(=S)Nc2ccccc2)C2CC(=O)N(c3ccc(Cl)cc3)C2=O)cc1 (stereo not given) | 2.1
7 | Cc1cccc(NC(=O)C2CC(=O)n3c(nc4ccccc43)N2)c1 (stereo not given) | > 10
8 | CCN(CC)C(=O)C(=O)c1cn(CC(=O)Nc2ccccc2OC)c2ccccc12 | > 10
9 | CC(=O)N(CCc1ccccc1)C1CC(=O)N(c2ccc(Br)cc2)C1=O (stereo not given) | > 10
10 | O=C1CC(NCCc2ccccc2)C(=O)N1c1ccc(Br)cc1 (stereo not given) | > 10
11 | CC(=O)c1cn(CC(=O)Nc2cccc(C(F)(F)F)c2)c2ccccc12 | > 10
12 | O=C(NCCc1nc2ccccc2[nH]1)c1ccc(Cl)c(Cl)c1 | > 10
13 | COc1ccccc1NC(=O)CSc1nnc2c(n1)[nH]c1ccc(C)cc12 | > 10
14 | O=C(NCCc1nc2ccccc2[nH]1)c1ccc(Cl)cc1Cl | > 10
15 | O=C(NCc1nc2ccccc2[nH]1)C1=C[C@H](c2ccc3c(c2)OCO3)C[C@H](OCCCCO)O1 | > 10
16 | Cn1c(CCNC(=O)c2ccc(Cl)cc2)nc2ccccc21 | > 10
17 | O=C(CSc1nnc2c(n1)[nH]c1ccc(Br)cc12)NCc1ccccc1 | > 10
18 | CCc1ccc2[nH]c3nc(SCC(=O)NCc4cccc(OC)c4)nnc3c2c1 | > 10
19 | O=C(C(=O)N1CCOCC1)c1cn(CC(=O)N2CCCc3ccccc32)c2ccccc12 | > 10
20 | CCc1ccc2c(c1)c1nnc(SCC(=O)Nc3ccc4c(c3)OCO4)nc1n2C | > 10
21 | O=C(Cn1cc(C(=O)c2ccccc2)c2ccccc21)Nc1cccc(C(F)(F)F)c1 | 4.2
22 | COCCc1nc2ccc(C(=O)NCCc3nc4ccc(OC)cc4[nH]3)cc2o1 | > 10
23 | COc1ccc(NC(=O)C2CC(=O)n3c(nc4ccccc43)N2)cc1 (stereo not given) | > 10
24 | O=C(Cn1cc(C(=O)C(=O)N2CCCC2)c2ccccc21)Nc1ccccc1 | > 10
25 | O=C(NCc1nc2ccccc2[nH]1)C1=C[C@H](c2ccccc2)C[C@H](OCc2ccc(CO)cc2)O1 | > 10
26 | CC(=O)N(CCc1ccccc1)C1CC(=O)N(c2ccc(Cl)cc2)C1=O (stereo not given) | > 10
27 | Cc1cccc2[nH]c(C3CCCN(C(=O)c4cccc5cccnc45)C3)nc12 (stereo not given) | > 10
28 | Cc1ccc(C(=O)NCCc2nc3ccccc3[nH]2)cc1[N+](=O)[O-] | > 10

Row | SMILES | IC50 [µM]
29 | CCN(C(=O)Cn1cc(C(=O)C(=O)N2CCOCC2)c2ccccc21)c1ccccc1 | > 10
30 | CCN(CC)C(=O)C(=O)c1cn(CC(=O)N(CC)c2ccccc2)c2ccccc12 | > 10
31 | O=C(Cn1cc(C(=O)c2ccco2)c2ccccc21)Nc1cccc(C(F)(F)F)c1 | 8.18
32 | Cc1ccc(C(=O)NCCc2nc3ccccc3[nH]2)cc1C | > 10
33 | CNC(=S)N(CCc1ccccc1)C1CC(=O)N(c2ccc(Br)cc2)C1=O (stereo not given) | 3.44
34 | O=C(NCCc1nc2ccccc2[nH]1)c1ccc(Cl)cc1 | > 10
35 | Cc1ccc(CNC(=O)CSc2nnc3c(n2)[nH]c2ccc(C)cc23)cc1 | > 10
36 | CCN(CC)C(=O)C(=O)c1cn(CC(=O)Nc2cccc(OC)c2)c2ccccc12 | > 10
37 | O=C(NCCc1nc2ccccc2[nH]1)c1c(F)cccc1F | > 10
38 | O=C(Cn1cc(C(=O)C(=O)N2CCOCC2)c2ccccc21)NCc1ccccc1 | > 10
39 | CC(C)(C)[C@H]1C=C(C(=O)NCc2nc3ccccc3[nH]2)O[C@@H](OCc2ccc(CO)cc2)C1 | > 10
40 | O=C(Cn1cc(C(=O)C(=O)N2CCOCC2)c2ccccc21)NCC1CCCO1 (stereo not given) | > 10
41 | O=C(NCc1nc2ccccc2[nH]1)C1=C[C@@H](C2CC2)C[C@@H](OCc2ccc(CO)cc2)O1 | > 10
42 | Cc1cc2cc(C(=O)N3CCCC(c4nc5ccccc5[nH]4)C3)ccc2o1 (stereo not given) | > 10
43 | CCN(CC)C(=O)C(=O)c1cn(CC(=O)Nc2cccc(C(F)(F)F)c2)c2ccccc12 | 2.55
44 | CCCCn1c(CCNC(=O)c2ccc(F)cc2)nc2ccccc21 | > 10
45 | COc1cccc(NC(=O)C2CC(=O)n3c(nc4ccccc43)N2)c1 (stereo not given) | > 10
46 | CC(C)c1nc2ccc(C(=O)N(C)CCc3nc4ccc(F)cc4[nH]3)cc2o1 | > 10
47 | CC1Cc2ccccc2N1C(=O)Cn1cc(C(=O)C(=O)N2CCOCC2)c2ccccc21 (stereo not given) | > 10
48 | CCN(CCc1nc2ccc(C)cc2[nH]1)C(=O)c1ccc2ncccc2c1 | > 10
49 | COc1ccc(NC(=O)CSc2nnc3c4cc(C)ccc4n(C)c3n2)cc1 | > 10
50 | Cc1ccc2[nH]c3nc(SCC(=O)Nc4ccc(C(F)(F)F)cc4)nnc3c2c1 | > 10
51 | CCO[C@H]1OC(C(=O)NCc2nc3ccccc3[nH]2)=C[C@@H](c2ccc(Br)cc2)[C@@H]1CCCO | > 10
52 | COc1ccccc1NC(=O)Cn1cc(C(=O)C(=O)N2CCOCC2)c2ccccc21 | > 10
53 | CCC(=O)c1cn(CC(=O)Nc2cccc(C(F)(F)F)c2)c2ccccc12 | > 10
54 | O=C(Cn1cc(C(=O)C2CC2)c2ccccc21)Nc1cccc(C(F)(F)F)c1 | 2.62
55 | O=C(Cn1cc(C(=O)COc2ccccc2)c2ccccc21)Nc1cccc(C(F)(F)F)c1 | > 10
